One data set concerns HBV. In words: HBV-DNA antiviral assay using HepG2.117 cells. In kind it is cell-based, HBV genotype D. As to conditions: Hepatitis B virus, HepG2.117, 72 h. Here is the method: (§1) The following assay procedure describes the HBV antiviral assay, using HepG2.117 cells, which carry a stably integrated genotype D HBV genome under the control of a Tet-off promoter, and intracellular HBV DNA quantification as endpoint. Cell viability is assessed in parallel by measuring the intracellular ATP content using CellTiter-Glo 2.0 (Promega).
On day 0, HepG2.117 cells (which are maintained in routine cell culture with doxycycline present in the medium at a final concentration of 1 μg/mL) are seeded in 96-well plates (white with clear bottom) at a density of 2.0×10^4 cells/well (0.1 mL/well) in medium without doxycycline to induce pgRNA transcription and subsequent formation of HBV particles. The cells are incubated at 37° C. and 5% CO2.
(§2) On day 1, medium is removed from each well, the test articles are diluted in culture medium without doxcycyline and 100 μL was added to cell culture wells (9 concentrations, 4-fold dilution). For each plate, 6 untreated (merely DMSO) wells are included. The final concentration of DMSO in the culture medium is 2%. Each plate is prepared in duplicate (one for HBV DNA extraction, one for CellTiter-Glo 2.0 measurement). The cells are incubated at 37° C. and 5% CO2 for 3 days.
(§3) On day 4, cell viability is assessed using CellTiter-Glo 2.0 and cell lysates are prepared for HBV DNA extraction and subsequent quantification by qPCR.
HBV DNA Quantification by qPCR
Medium is removed from each well and 100 μL of 0.33% NP-40 in H2O was added to each well. Plates are sealed, incubated at 4° C. for 5 mins, vortexed extensively and centrifuged briefly. Next, 35 μL of lysate is added to 65 μL QuickExtract DNA Extraction Solution (Epicentre) in a PCR plate for each well. PCR plate is incubated at 65° C. for 6 mins, 98° C. for 2 mins and finally cooled to 4° C. HBV DNA is then quantified by qPCR with HBV-specific primers and probes as specified in Table 3 using the Bio-Rad SSOAdvanced Universal Probes Supermix on a CFX96 machine (Bio-Rad). The PCR cycle program consisted of 95° C. for 3 mins, followed by 40 cycles at 95° C. for 10 sec and 60° C. for 30 sec.
A DNA standard is prepared by dilution of an IDT gBlock corresponding to the amplicon with concentrations ranging from 10^2 to 10^8 copies/input (i.e., per 4 μL) and used to generate a standard curve by plotting Cq values vs. HBV DNA standard concentration. The quantity of HBV DNA in each sample is determined by interpolating from the standard curve.
(§4) Cell viability is calculated as follows: % Cell viability=(luminescence value of test sample)/(average luminescence value of 2% DMSO control)×100%. HBV DNA inhibition was calculated as follows: 100−(HBV DNA copy number of test sample)/(average HBV DNA copy number of 2% DMSO control)×100%. No normalization to entecavir is required due to the excellent dynamic window of this assay. The CC50, EC50 and EC9o values were determined by dose-response curves fitted using non-linear regression.

Data set [1] in a line: Cell viability by CellTiter-Glo 2.0 (intracellular ATP content) in HepG2.117 cells. The format is cell-based. As to conditions: human, CellTiter-Glo 2.0, 3 days incubation. Here is the method: as §1, §2, §3
Using the other plates, the cell viability is quantified by CellTiter-Glo 2.0 according to the manufacturer's manual. In brief, 100 μL of reagent solution is added to the culture plates and shaken for 2′. The plates are incubated at rt for 10 min and luminescence signal is subsequently measured on a VarioSkan Lux (ThermoFisher) plate reader.
as §4
Background: In ATP-based viability assays light output follows the ATP content of the culture.

The term EC50 denotes the concentration that produces a half-maximal response. Read a high EC50 as a less potent agent. A word on the CC50: it is the concentration that lowers cell viability or growth by half. Higher therefore signals better tolerance by the cells.

In the case of `Cc1cc(C)n(-c2nc3c(c(=O)n2-c2ccc(OC[C@H](C)O)cc2)C[C@@H](C)N(C(=O)c2ccc(Br)c(C(F)(F)F)c2)C3)n1` [Compound 15, (6R)-7-[4-bromo-3-(trifluoromethyl)benzoyl]-2-(3,5-dimethylpyrazol-1-yl)-3-[4-[(2S)-2-hydroxypropoxy]phenyl]-6-methyl-6,8-dihydro-5H-pyrido[3,4-d]pyrimidin-4-one], the EC50 in the data set on HBV was less than 50 nM. In data set [1], this molecule returned a half-maximal cytotoxic concentration (CC50) at 3 days of more than 500 nM.

For `Cc1cc(C)n(-c2nc3c(c(=O)n2-c2ccc(-c4cnn(C)c4)cn2)C[C@@H](C)N(C(=O)c2ccc(Br)c(C(F)(F)F)c2)C3)n1` [Compound 16, (6R)-7-[4-bromo-3-(trifluoromethyl)benzoyl]-2-(3,5-dimethylpyrazol-1-yl)-6-methyl-3-[5-(1-methylpyrazol-4-yl)-2-pyridyl]-6,8-dihydro-5H-pyrido[3,4-d]pyrimidin-4-one], the half-maximal effective concentration (EC50) in the data set with HBV is less than 50 nM. This molecule returned a 50% cytotoxic concentration (CC50) at 3 days in data set [1] of more than 500 nM.

In the case of `Cc1cc(C)n(-c2nc3c(c(=O)n2-c2cc(Cl)c4c(c2)ncn4C)C[C@@H](C)N(C(=O)c2ccc(Br)c(C(F)(F)F)c2)C3)n1` [Compound 17, (6R)-7-[4-bromo-3-(trifluoromethyl)benzoyl]-3-(7-chloro-1-methyl-benzimidazol-5-yl)-2-(3,5-dimethylpyrazol-1-yl)-6-methyl-6,8-dihydro-5H-pyrido[3,4-d]pyrimidin-4-one], the EC50 with HBV was less than 50 nM. In data set [1], this molecule came in with a CC50 at 3 days of more than 500 nM.

For the molecule `CNC(=O)c1ccc(-n2c(-n3nc(C)cc3C)nc3c(c2=O)C[C@@H](C)N(C(=O)c2ccc(Br)c(C(F)(F)F)c2)C3)cn1` [Compound 18, 5-[(6R)-7-[4-bromo-3-(trifluoromethyl)benzoyl]-2-(3,5-dimethylpyrazol-1-yl)-6-methyl-4-oxo-6,8-dihydro-5H-pyrido[3,4-d]pyrimidin-3-yl]-N-methyl-pyridine-2-carboxamide], the EC50 with HBV is less than 50 nM. Also, the CC50 at 3 days in data set [1] is more than 500 nM.

With `Cc1cc(C)n(-c2nc3c(c(=O)n2-c2cnc4c(c2)ncn4C)C[C@@H](C)N(C(=O)c2ccc(Br)c(C(F)(F)F)c2)C3)n1` [Compound 19, (6R)-7-[4-bromo-3-(trifluoromethyl)benzoyl]-2-(3,5-dimethylpyrazol-1-yl)-6-methyl-3-(3-methylimidazo[4,5-b]pyridin-6-yl)-6,8-dihydro-5H-pyrido[3,4-d]pyrimidin-4-one], in the data set on HBV, the EC50 was less than 50 nM. The half-maximal cytotoxic concentration (CC50) at 3 days in data set [1] is more than 500 nM.

With `Cc1cc(C)n(-c2nc3c(c(=O)n2-c2cnc4c(ncn4C)n2)C[C@@H](C)N(C(=O)c2ccc(Br)c(C(F)(F)F)c2)C3)n1` [Compound 20, (6R)-7-[4-bromo-3-(trifluoromethyl)benzoyl]-2-(3,5-dimethylpyrazol-1-yl)-6-methyl-3-(1-methylimidazo[4,5-b]pyrazin-5-yl)-6,8-dihydro-5H-pyrido[3,4-d]pyrimidin-4-one], the EC50 with HBV is less than 50 nM. The molecule also yielded a CC50 at 3 days in data set [1] of more than 500 nM.

In the data set with HBV, `Cc1cc(C)n(-c2nc3c(c(=O)n2-c2cc(F)c4ncn(C)c4c2)C[C@@H](C)N(C(=O)c2ccc(Br)c(C(F)(F)F)c2)C3)n1` [Compound 21, (6R)-7-[4-bromo-3-(trifluoromethyl)benzoyl]-2-(3,5-dimethylpyrazol-1-yl)-3-(7-fluoro-3-methyl-benzimidazol-5-yl)-6-methyl-6,8-dihydro-5H-pyrido[3,4-d]pyrimidin-4-one] yielded an EC50 of less than 50 nM. In data set [1], the 50% cytotoxic concentration (CC50) at 3 days was more than 500 nM.

For `Cc1cc(C)n(-c2nc3c(c(=O)n2-c2cc(F)c4c(c2)ncn4C)C[C@@H](C)N(C(=O)c2ccc(Br)c(C(F)(F)F)c2)C3)n1` [Compound 22, (6R)-7-[4-bromo-3-(trifluoromethyl)benzoyl]-2-(3,5-dimethylpyrazol-1-yl)-3-(7-fluoro-1-methyl-benzimidazol-5-yl)-6-methyl-6,8-dihydro-5H-pyrido[3,4-d]pyrimidin-4-one], the EC50 with HBV was less than 50 nM. In data set [1], the CC50 at 3 days was more than 500 nM.

`Cc1cc(C)n(-c2nc3c(c(=O)n2-c2ccc4c(c2)ncn4CC(F)F)C[C@@H](C)N(C(=O)c2ccc(Br)c(C(F)(F)F)c2)C3)n1` [Compound 23, (6R)-7-[4-bromo-3-(trifluoromethyl)benzoyl]-3-[1-(2,2-difluoroethyl)benzimidazol-5-yl]-2-(3,5-dimethylpyrazol-1-yl)-6-methyl-6,8-dihydro-5H-pyrido[3,4-d]pyrimidin-4-one]: the EC50 with HBV is less than 50 nM. In data set [1], this molecule came in with a CC50 at 3 days of more than 500 nM.

Take `CNC(=O)c1ccc(-n2c(-n3nc(C)cc3C)nc3c(c2=O)C[C@@H](C)N(C(=O)c2ccc(Br)c(C(F)(F)F)c2)C3)cc1N` [Compound 24, 2-amino-4-[(6R)-7-[4-bromo-3-(trifluoromethyl)benzoyl]-2-(3,5-dimethylpyrazol-1-yl)-6-methyl-4-oxo-6,8-dihydro-5H-pyrido[3,4-d]pyrimidin-3-yl]-N-methyl-benzamide]: the EC50 in the data set with HBV was less than 50 nM. In data set [1], this molecule showed a cytotoxic concentration (CC50) at 3 days of more than 500 nM.

For the molecule `Cc1cc(C)n(-c2nc3c(c(=O)n2-c2ccc(NC(C)C)nc2)C[C@@H](C)N(C(=O)c2ccc(Br)c(C(F)(F)F)c2)C3)n1` [Compound 25, (6R)-7-[4-bromo-3-(trifluoromethyl)benzoyl]-2-(3,5-dimethylpyrazol-1-yl)-3-[6-(isopropylamino)-3-pyridyl]-6-methyl-6,8-dihydro-5H-pyrido[3,4-d]pyrimidin-4-one], the half-maximal effective concentration (EC50) in the data set with HBV was less than 50 nM. The same molecule had a CC50 at 3 days in data set [1] of more than 500 nM.

The molecule `Cc1cc(C)n(-c2nc3c(c(=O)n2-c2cc(C)c4c(c2)ncn4C)C[C@@H](C)N(C(=O)c2ccc(Br)c(C(F)(F)F)c2)C3)n1` [Compound 26, (6R)-7-[4-bromo-3-(trifluoromethyl)benzoyl]-3-(1,7-dimethylbenzimidazol-5-yl)-2-(3,5-dimethylpyrazol-1-yl)-6-methyl-6,8-dihydro-5H-pyrido[3,4-d]pyrimidin-4-one] returned an EC50 in the data set on HBV of less than 50 nM. The molecule further returned a CC50 at 3 days in data set [1] of more than 500 nM.

In the data set with HBV, `Cc1cc(C)n(-c2nc3c(c(=O)n2-c2ccc(N4CCOCC4)nc2)C[C@@H](C)N(C(=O)c2ccc(Br)c(C(F)(F)F)c2)C3)n1` [Compound 27, (6R)-7-[4-bromo-3-(trifluoromethyl)benzoyl]-2-(3,5-dimethylpyrazol-1-yl)-6-methyl-3-(6-morpholino-3-pyridyl)-6,8-dihydro-5H-pyrido[3,4-d]pyrimidin-4-one] gave an EC50 of less than 50 nM. This molecule returned a CC50 at 3 days in data set [1] of more than 500 nM.

For the molecule `Cc1cc(C)n(-c2nc3c(c(=O)n2-c2ccc(OC[C@H](C)O)nc2)C[C@@H](C)N(C(=O)c2ccc(Br)c(C(F)(F)F)c2)C3)n1` [Compound 28, (6R)-7-[4-bromo-3-(trifluoromethyl)benzoyl]-2-(3,5-dimethylpyrazol-1-yl)-3-[6-[(2S)-2-hydroxypropoxy]-3-pyridyl]-6-methyl-6,8-dihydro-5H-pyrido[3,4-d]pyrimidin-4-one], the concentration giving a half-maximal response (EC50) with HBV is less than 50 nM. In addition, the cytotoxic concentration (CC50) at 3 days in data set [1] is more than 500 nM.

In turn, `Cc1cc(C)n(-c2nc3c(c(=O)n2-c2ccc(NC[C@H](C)O)nc2)C[C@@H](C)N(C(=O)c2ccc(Br)c(C(F)(F)F)c2)C3)n1` [Compound 29, (6R)-7-[4-bromo-3-(trifluoromethyl)benzoyl]-2-(3,5-dimethylpyrazol-1-yl)-3-[6-[[(2S)-2-hydroxypropyl]amino]-3-pyridyl]-6-methyl-6,8-dihydro-5H-pyrido[3,4-d]pyrimidin-4-one] yielded a half-maximal effective concentration (EC50) in the data set on HBV of less than 50 nM. Besides, in data set [1], the 50% cytotoxic concentration (CC50) at 3 days was more than 500 nM.

`Cc1cc(C)n(-c2nc3c(c(=O)n2-c2ccc(NC[C@@H](O)CO)nc2)C[C@@H](C)N(C(=O)c2ccc(Br)c(C(F)(F)F)c2)C3)n1` [Compound 30, (6R)-7-[4-bromo-3-(trifluoromethyl)benzoyl]-3-[6-[[(2R)-2,3-dihydroxypropyl]amino]-3-pyridyl]-2-(3,5-dimethylpyrazol-1-yl)-6-methyl-6,8-dihydro-5H-pyrido[3,4-d]pyrimidin-4-one]: in the data set with HBV, the EC50 fell in the range of 50 to 500 nM. This molecule also displayed a CC50 at 3 days in data set [1] of more than 500 nM.

The values are drawn from US20230382909A1, “BICYCLIC COMPOUNDS” (Aligos Therapeutics, Inc., priority 2022, published 2023).
